According to publication PMC8251769, “Phosphonate as a Stable Zinc‐Binding Group for “Pathoblocker” Inhibitors of Clostridial Collagenase H (ColH)” (Chemmedchem, 2021):

Each compound was assayed against ColH-PD (peptidase domain of collagenase H) (Hathewaya histolytica, UniProt Q46085) (assay: biochemical). Conditions: not given.
Sequence of ColH-PD (peptidase domain of collagenase H) (Q46085 331-721 limits assumed): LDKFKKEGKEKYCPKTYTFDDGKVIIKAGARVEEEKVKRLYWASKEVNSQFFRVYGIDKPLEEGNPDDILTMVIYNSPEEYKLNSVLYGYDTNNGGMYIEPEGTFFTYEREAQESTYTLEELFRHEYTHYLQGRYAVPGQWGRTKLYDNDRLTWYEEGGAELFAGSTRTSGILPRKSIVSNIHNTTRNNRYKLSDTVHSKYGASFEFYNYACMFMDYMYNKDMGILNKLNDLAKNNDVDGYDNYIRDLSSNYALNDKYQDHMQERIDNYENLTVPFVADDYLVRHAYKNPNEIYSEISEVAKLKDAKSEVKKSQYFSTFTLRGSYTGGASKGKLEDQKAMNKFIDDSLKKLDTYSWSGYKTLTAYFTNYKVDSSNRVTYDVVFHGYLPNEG

Row | Compound | IC50 [µM]
1 | O=C(CC(=O)Nc1ccccc1)NO [compound 11, N^1-Hydroxy-N^3-phenylmalonamide] | ~500
2 | CCOP(C)(=O)CC(=O)Nc1ccc(C(C)=O)cc1 (centres unmarked) [compound 27, Ethyl (2-((4-acetylphenyl)amino)-2-oxoethyl)(methyl)phosphinate] | > 500
3 | O=C(O)CC(=O)Nc1ccccc1 [compound 9, 3-Oxo-3-(phenylamino)propanoic acid] | > 500
4 | CC(=O)c1ccc(NC(=O)Cc2c[nH]cn2)cc1 [compound 20, N-(4-Acetylphenyl)-2-(1H-imidazol-4-yl)acetamide] | > 500
5 | CC(=O)c1ccc(NC(=O)Cn2ccnn2)cc1 [compound 14, N-(4-Acetylphenyl)-2-(1H-1,2,3-triazol-1-yl)acetamide] | > 500
6 | CC(=O)c1ccc(NC(=O)CP(C)(=O)O)cc1 [compound 25, Sodium (2-((4-acetylphenyl)amino)-2-oxoethyl)(methyl)phosphinate] | > 500
7 | O=C(O)CCC(=O)Nc1ccccc1 [compound 10, 4-Oxo-4-(phenylamino)butanoic acid] | > 500
8 | CC(=O)c1ccc(NC(=O)Cn2cnnn2)cc1 [compound 17, N-(4-Acetylphenyl)-2-(1H-tetrazol-1-yl)acetamide] | > 500
9 | CC(=O)c1ccc(NC(=O)Cn2ncnn2)cc1 [compound 18, N-(4-acetylphenyl)-2-(2H-tetrazol-2-yl)acetamide] | > 500
10 | NC(=O)CC(=O)Nc1ccccc1 [compound 8, N^1-Phenylmalonamide] | > 500
11 | CC(=O)c1ccc(NC(=O)Cc2nn[nH]n2)cc1 [compound 19, N-(4-Acetylphenyl)-2-(2H-tetrazol-5-yl)acetamide] | 22 ± 1
12 | CC(=O)c1ccc(NC(=O)CC#N)cc1 [compound 23, N-(4-Acetylphenyl)-2-cyanoacetamide] | > 500
13 | CC(=O)c1ccc(NC(=O)Cn2cncn2)cc1 [compound 16, N-(4-Acetylphenyl)-2-(1H-1,2,4-triazol-1-yl)acetamide] | > 500
14 | CC(=O)c1ccc(NC(=O)CS(=O)(=O)O)cc1 [compound 24, Sodium 2-((4-acetylphenyl)amino)-2-oxoethane-1-sulfonate] | > 500
15 | CC(=O)c1ccc(NC(=O)Cn2ccnc2)cc1 [compound 15, N-(4-Acetylphenyl)-2-(1H-imidazol-1-yl)acetamide] | 448 ± 33

Same assay, conditions: read-out: IC50

Row | Compound | IC50 [µM]
16 | CC(=O)c1ccc(NC(=O)CP(=O)(O)O)cc1 [compound 26, Disodium (2-((4-acetylphenyl)amino)-2-oxoethyl)phosphonate] | 7 ± 1

Each compound was assayed against T1, HDAC-8 (Homo sapiens, UniProt Q9BY41) (assay: fluorescence inhibitor screening kit). Conditions: read-out: Inhibition [%] at 100 μM compound^[a] / 5 a (thiol).
T1 construct: gene HDAC8
T1 sequence (Q9BY41 1-377): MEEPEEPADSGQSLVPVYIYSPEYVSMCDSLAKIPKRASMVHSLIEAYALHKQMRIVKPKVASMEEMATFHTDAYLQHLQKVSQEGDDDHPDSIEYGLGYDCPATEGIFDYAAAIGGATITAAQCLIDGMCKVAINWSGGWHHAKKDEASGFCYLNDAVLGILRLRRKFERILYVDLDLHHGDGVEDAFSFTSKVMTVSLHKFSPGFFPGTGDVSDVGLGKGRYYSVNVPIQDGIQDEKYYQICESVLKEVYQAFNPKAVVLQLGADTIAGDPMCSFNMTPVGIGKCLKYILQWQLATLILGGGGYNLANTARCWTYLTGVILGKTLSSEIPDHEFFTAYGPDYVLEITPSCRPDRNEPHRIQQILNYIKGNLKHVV
Format: biochemical
From the text: fluorescence inhibitor screening kit on HDAC-8

Row | Compound | inhibition at 100 µM [%]
17 | CC(=O)c1ccc(NC(=O)CS)cc1 [5a, thiol 5 a] | 48 ± 5

Each compound was assayed against T2, MMP-14 (Homo sapiens, UniProt P50281) (assay: SensoLyte […] generic MMP activity kit). Conditions: read-out: Inhibition [%] at 100 μM compound^[a] / 26 (phosphonate).
T2 construct: gene MMP14; catalytic domain, AnaSpec
Format: biochemical

Row | Compound | inhibition at 100 µM [%]
18 | CC(=O)c1ccc(NC(=O)CP(=O)(O)O)cc1 [compound 26, Disodium (2-((4-acetylphenyl)amino)-2-oxoethyl)phosphonate] | 47 ± 13

What follows are compounds tested against T3, HDAC-3 (Homo sapiens, UniProt O15379) (assay: fluorescence inhibitor screening kit). Conditions: read-out: Inhibition [%] at 100 μM compound^[a] / 5 a (thiol).
T3 construct: gene HDAC3
Format: biochemical
From the text: fluorescence inhibitor screening kit on HDAC-3

T3 sequence (O15379 whole entry): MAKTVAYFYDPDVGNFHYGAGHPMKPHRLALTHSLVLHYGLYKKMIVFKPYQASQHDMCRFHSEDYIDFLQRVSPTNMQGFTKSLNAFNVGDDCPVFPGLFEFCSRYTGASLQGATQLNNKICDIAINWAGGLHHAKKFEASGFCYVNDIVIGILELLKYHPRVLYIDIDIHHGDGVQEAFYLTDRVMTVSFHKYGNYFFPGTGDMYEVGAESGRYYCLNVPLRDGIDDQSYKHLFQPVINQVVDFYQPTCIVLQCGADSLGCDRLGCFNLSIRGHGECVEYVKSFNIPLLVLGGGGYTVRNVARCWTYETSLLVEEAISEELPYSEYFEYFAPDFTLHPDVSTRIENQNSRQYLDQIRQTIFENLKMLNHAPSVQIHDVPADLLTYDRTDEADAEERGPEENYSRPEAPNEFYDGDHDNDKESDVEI

Row | Compound | inhibition at 100 µM [%]
19 | CC(=O)c1ccc(NC(=O)CS)cc1 [5a, thiol 5 a] | 51 ± 7

Each compound was assayed against T4, MMP-8 (Homo sapiens, UniProt P22894) (assay: SensoLyte […] generic MMP activity kit). Conditions: read-out: Inhibition [%] at 100 μM compound^[a] / 26 (phosphonate).
T4 construct: gene MMP8; catalytic domain, AnaSpec
Format: biochemical

T4 sequence (P22894 100-262 limits assumed): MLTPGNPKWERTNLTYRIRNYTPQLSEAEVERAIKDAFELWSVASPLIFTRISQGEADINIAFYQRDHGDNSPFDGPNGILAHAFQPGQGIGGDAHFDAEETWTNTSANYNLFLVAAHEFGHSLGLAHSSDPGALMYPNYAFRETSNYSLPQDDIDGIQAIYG

Row | Compound | inhibition at 100 µM [%]
20 | CC(=O)c1ccc(NC(=O)CP(=O)(O)O)cc1 [compound 26, Disodium (2-((4-acetylphenyl)amino)-2-oxoethyl)phosphonate] | 36 ± 1
